According to patent publication US20250128203A1, “MODIFIED REDOX-ACTIVE SORBENTS FOR ELECTROCHEMICAL CARBON DIOXIDE SEPARATION” (The Johns Hopkins University, priority 2023, published 2025):
Several values for one entry are separate records, joined by “and”; a condition that tells them apart may be missing. Equal values may be shown once.

Columns and labels:
[1] = DMF, cited from earlier work; for E1/2 (1) in CO2: first half-wave potential; for E1/2 (1) in CO2 / E1/2 (2) in CO2 / E1/2 (2) in N2: vs. Fc^+/Fc; for E1/2 (1) in CO2 / E1/2 (2) in CO2: under CO2; for E1/2 (2) in CO2 / E1/2 (2) in N2: second half-wave potential; for E1/2 (2) in N2: under N2
[2] = Cyclic voltammetry of isoindigos in DMF (half-wave redox potentials under N2 or CO2); format: physicochemical; settings: for E1/2 in N2 (first): first half-wave potential vs. Fc^+/Fc; for E1/2 in N2 (first) / E1/2 in N2 (second): 0.1 M NBu4PF6, N2, 298 K; for E1/2 (IId/IId·−) in N2: Table 1, first electron transfer, N2, DMF
Method: (§1) Electrochemical measurements were conducted using a BioLogic VSP potentiostat (BioLogic Science Instruments). For the cyclic voltammetry measurements, glassy carbon (Ø=3 mm) was used as the working electrode, platinum wire was used as the counter electrode, silver wire was used as the pseudo-reference electrode and ferrocene was used as the internal reference. In a standard cyclic voltammetry measurement, the molecule of interest (2.5 mM) was dissolved in anhydrous DMF with 100 mM NBu4PF6 as the supporting salt. Typical cyclic voltammograms were collected at a scan rate of […]. To study the effects of ionic species on the redox behaviour of the sorbent molecules, 100 mM LiClO4, NaClO4, KClO4, NBu4ClO4, sodium triflate (NaOTf), or sodium bis(trifluoromethanesulfonyl)imide (NaTFSI) was used as the supporting electrolyte salt.

[3] = CO2 binding constant (KCO2) calculated from the shift of the second reduction peak in CV; settings: for K[CO2] / logK[CO2]: DMF; for ΔEpeak(2): difference between the second reduction peak potentials (IId·−/IId2−) in CO2 and N2
Method: as §1
The CO2 binding constant (KCO2) was calculated by Eq 1: […]

[4] = UV-vis absorption, optical band gap; format: physicochemical; settings: UV-vis absorption (Kubelka-Munk spectra)
Method: UV-vis absorption spectra were recorded on a Thermo Scientific Genesys 10S UV-vis spectrophotometer.

[5] = second half-wave potential vs. Fc^+/Fc, 2.5 mM in DMF
[6] = vs. Fc^+/Fc, 2.5 mM in DMF, 0.1 M NBu4PF6, CO2, 298 K

## CC(C)(C)C1=CC(=O)C=C(C(C)(C)C)C1=O [TBQ]
[1]
  logKCO2: 18.29
  E1/2 (1) in CO2: −1.25 V
  E1/2 (2) in CO2: −1.25 V
  E1/2 (2) in N2: −2.29 V

## O=C1Nc2ccc(F)cc2/C1=C1\C(=O)Nc2ccc(F)cc21 [55DFIId, 5,5′-Difluoroisoindigo]
[2]; 2.5 mM in DMF
  E1/2 in N2 (first): −1.14, V
[2]; [5]
  E1/2 in N2 (second): −1.69 V
[2]; [6]
  E1/2 in CO2 (first or single): −1.13 V
[3]; 298 K
  K[CO2]: 9.13e+09 M⁻¹
  logK[CO2]: 9.96
[3]
  ΔEpeak(2): 0.547 V
[4]
  Optical band gap: 1.97 eV

## O=C1c2ccccc2C(=O)c2cc(Cl)ccc21 [AQ-Cl]
[1]
  logKCO2: 2.73
  E1/2 (1) in CO2: −1.25 V
  E1/2 (2) in CO2: −1.88 V
  E1/2 (2) in N2: −2 V

## CCCOC(=O)c1ccc2c(c1)C(=O)c1ccccc1C2=O [AQ-COO- C3H7]
[1]
  logKCO2: 2.56
  E1/2 (1) in CO2: −1.29 V
  E1/2 (2) in CO2: −1.89 V
  E1/2 (2) in N2: −2 V

## COc1ccc2c(c1)/C(=C1\C(=O)Nc3ccc(OC)cc31)C(=O)N2 [55DMIId, 5,5′-Dimethoxylisoindigo]
[2]
  E1/2 (IId/IId·−) in N2: −1.29 V vs. Fc^+/Fc
[2]; 2.5 mM in DMF
  E1/2 in N2 (first): −1.29 V and −1.29, V
[2]; [5]
  E1/2 in N2 (second): −1.76 V
[2]; [6]
  E1/2 in CO2 (first or single): −1.2 V
[3]; 298 K
  K[CO2]: 1.13e+09 M⁻¹
  logK[CO2]: 9.05
[3]; Table 1
  logK[CO2]: 9.05
[3]
  ΔEpeak(2): 0.494 V
[4]
  Optical band gap: 1.78 eV

## O=C1Nc2ccccc2/C1=C1\C(=O)Nc2cc(C(=O)O)ccc21 [6CIId, Isoindigo-6-carboxylic Acid]
[2]; 2.5 mM in DMF
  E1/2 in N2 (first): −1.09, V
[2]; second half-wave potential vs. Fc^+/Fc, 2.5 mM in DMF, 0.1 M NBu4PF6, CO2, 298 K
  E1/2 in CO2 (second): −1.18 V
[2]; [5]
  E1/2 in N2 (second): −1.35 V
[2]; [6]
  E1/2 in CO2 (first or single): −1.06, V
[3]; 298 K
  K[CO2]: 750 M⁻¹
  logK[CO2]: 2.87
[3]
  ΔEpeak(2): 0.129 V
[4]
  Optical band gap: 2.01 eV

## CC1=C(C)C(=O)C(C)=C(C)C1=O [DBQ]
[1]
  logKCO2: 17.61
  E1/2 (1) in CO2: −1.39 V
  E1/2 (2) in CO2: −1.39 V
  E1/2 (2) in N2: −2.39 V

## O=C1C=CC(=O)c2ccccc21 [p-NQ]
[1]
  logKCO2: 14.74
  E1/2 (1) in CO2: −1.23 V
  E1/2 (2) in CO2: −1.23 V
  E1/2 (2) in N2: −2.06 V

## O=C1Nc2ccccc2/C1=C1\C(=O)Nc2ccc(Br)cc21 [5BIId, 5-Bromoisoindigo]
[2]
  E1/2 (IId/IId·−) in N2: −1.19 V vs. Fc^+/Fc
[2]; Table 5, vs. Fc^+/Fc
  Experimental 1st half-wave potential in N2: −1.19 V
[2]; 2.5 mM in DMF
  E1/2 in N2 (first): −1.19, V
[2]; [5]
  E1/2 in N2 (second): −1.67 V
[2]; [6]
  E1/2 in CO2 (first or single): −1.11 V
[3]; 298 K
  K[CO2]: 1.12e+09 M⁻¹
  logK[CO2]: 9.05
[3]; Table 1
  logK[CO2]: 9.05
[3]
  ΔEpeak(2): 0.494 V
[4]
  Optical band gap: 2.04 eV

## CCCOc1ccc2c(c1)C(=O)c1ccccc1C2=O [AQ-O-C3H7]
[1]
  logKCO2: 11.70
  E1/2 (1) in CO2: −1.55 V
  E1/2 (2) in CO2: −1.55 V
  E1/2 (2) in N2: −2.2 V

## O=C1Nc2cc(F)c(F)cc2/C1=C1\C(=O)Nc2cc(F)c(F)cc21 [5566TFIId, 5,5′,6,6′-Tetrafluoroisoindigo]
[2]; 2.5 mM in DMF
  E1/2 in N2 (first): −1.10, V
[2]; [5]
  E1/2 in N2 (second): −1.68 V
[2]; [6]
  E1/2 in CO2 (first or single): −1.1 V
[3]; 298 K
  K[CO2]: 2.17e+10 M⁻¹
  logK[CO2]: 10.3
[3]
  ΔEpeak(2): 0.570 V
[4]
  Optical band gap: 2.02 eV
